Measurements as given in patent US20260355184A1, “SMALL MOLECULE DEGRADERS OF HIV-1 TAT PROTEIN” (priority 2022, published 2026).
Like-named read-outs stand apart in the source and are kept apart here.

Assays:
Tat F38A = Tat F38A (Human immunodeficiency virus type 1 (HXB3 ISOLATE), UniProt P69698, F38A); details: TT-44856 and TT-44863 40 μM, TT-44881 60 μM
Source text: (§1) The molecular docking of HIV Tat protein bound to dCA was previously reported, informed by a series of more than 60 analogs of dCA, using AutoDock Vina with the NMR HIV Tat Mal protein (D clade) as a template (Protein data Bank, PDB entry 1K5K)21. […] Single changes to residues Y26 and F38 decrease Tat transactivation activity^33-36. […] To validate the molecular docking model, Tat variants with either deletions or mutated residues were used in degradation assays in the presence of leads.

Tat Y26A = Tat Y26A (Human immunodeficiency virus type 1 (HXB3 ISOLATE), UniProt P69698, Y26A); details: TT-44856 and TT-44863 40 μM, TT-44881 60 μM
Source text: as §1

[1] = target: Tat variants with cysteine or core regions truncated (Human immunodeficiency virus type 1 (HXB3 ISOLATE), UniProt P69698); details: TT-44856 and TT-44863 40 μM, TT-44881 60 μM
Source text: as §1

recombinant Tat = target: T1, recombinant Tat (Human immunodeficiency virus type 1 (HXB3 ISOLATE), UniProt P69698); assay: Recombinant Tat stability in HEK293T cells, western blot; type: cell-based, HIV; details: 4 hrs recombinant Tat then 2 hrs compound, n=1
T1 construct: detected with anti-Tat serum
Experimental: Next, the effect of the three leads on the alteration of Tat steady state levels was assessed. Tat expression from an integrated provirus, or from HIV acute infection is generally too low to be detected by western blot. Furthermore, antibodies against Tat are known for their lack of avidity. Tat degradation was thus assessed upon transfection. Flag-Tat or Flag-GFP were individually transfected into HEK293T and 24 hrs later, TT-44856, TT-44863 or TT-44881 were added to the culture, followed by Western blot 24 hrs later (dubbed “degradation assay”) (FIG. 5A). […] Finally, the leads' impact on recombinant Tat protein in HEK293T cells was assessed (FIG. 5D). HEK293T cells were incubated with recombinant Tat for 4 hrs to allow Tat internalization, followed by several thorough washes to remove unincorporated Tat. Cells were then incubated with all three leads (or Triptolide) for an additional 2 hrs. Cells were lysed and analyzed by western blot with an anti-Tat serum.

HIV NL4.3 strain = assay: HIV infectivity assay, reporter cell line HeLa-CD4-LTR-LacZ, β-Gal activity (Tat protein inhibition); type: cell-based, HIV-1 (NL4.3)
Summary of the method: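 HeLa-CD4-LTR-LacZ reporter cells (β-Gal under HIV 5′ LTR) infected with HIV NL4.3; β-Gal activity read 72 h post infection, with parallel Cell-Titer-Glo viability. OM10.1 carry a single wild-type provirus; ACH-2 a single provirus with TAR C37T mutation, defective Tat-TAR feedback.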

Tat lysine mutants = details: TT-44881 60 μM; for Tat degradation, single or combined lysine mutations / Tat degradation, additional lysine mutations to K28R, K29R and K41R: TT-44856 40 μM; for Tat degradation, single or combined lysine mutations / Tat degradation, K28R, K29R and K41R: n=1; for Tat degradation, additional lysine mutations to K28R, K29R and K41R: n=2; for Tat degradation, K28R, K29R and K41R: TT-44856 and TT-44863 40 μM
Source text: Tat 86 a.a. has 9 lysine residues (FIG. 8D) that could be engaged by lysine 48-linked ubiquitin chains or nonconventional ubiquitin chains, i.e., non-Lys-48 or non-Lys-63, to be degraded through the 26S proteasomal pathway^3738. […] Tat lysine residues required for leads' degradation engagement can be determined.
In addition to K28-29-K41R, other Tat's lysine residues were mutated and degradation assays performed in the presence of TT-44881 or TT-44856.

[2] = Human immunodeficiency virus 1, 72 h, read-out: IC50 against HIV infection, HeLa-CD4-LTR-LacZ, HIV NL4.3, β-Gal 72 hrs post infection

Tat Y26A, sequence (P69698 whole entry Y26A): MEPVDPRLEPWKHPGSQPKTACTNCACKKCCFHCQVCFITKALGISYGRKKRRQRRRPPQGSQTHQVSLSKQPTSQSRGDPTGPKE
Tat F38A, sequence (P69698 whole entry F38A): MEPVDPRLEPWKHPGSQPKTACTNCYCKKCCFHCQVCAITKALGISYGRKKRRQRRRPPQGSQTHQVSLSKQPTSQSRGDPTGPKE
T1 sequence (P69698 whole entry): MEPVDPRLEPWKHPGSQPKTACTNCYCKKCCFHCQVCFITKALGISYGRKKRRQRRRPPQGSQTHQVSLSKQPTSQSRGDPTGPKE

CC(C(=O)NCCCn1ccnc1)(c1ccccc1)c1ccccc1 [TT-44856]
Tat degradation, F38A mutation (Tat F38A): only weakly reduced lead hits mediated degradation
Tat degradation, Y26A mutation (Tat Y26A): ablated lead hits' ability to mediate Tat degradation
Flag-Tat degradation, cysteine or core regions truncated [1]: no longer degraded Flag-Tat
recombinant Tat degradation (recombinant Tat): degraded Tat as opposed to the DMSO control
IC50 (HIV NL4.3 strain; [2]): 20.5 ± 9.5 µM
IC50 (HIV NL4.3 strain; Human immunodeficiency virus 1, read-out: Infectivity IC50, HeLa-CD4-LTR-LacZ, analogs of TT-44856 (Table 3)): 1 to 20 µM
Tat degradation, single or combined lysine mutations (Tat lysine mutants): all the mutants were similarly degraded to the control
Tat degradation, additional lysine mutations to K28R, K29R and K41R (Tat lysine mutants): required either K50/51, K71 or K85
Tat degradation, K28R, K29R and K41R (Tat lysine mutants): do not prevent lead hits induced Tat degradation

COCCOc1ccc(C(F)(F)F)cc1NC(=O)Cn1cc(C(F)(F)F)cc(Cl)c1=O [TT-44863]
Tat degradation, F38A mutation (Tat F38A): only weakly reduced lead hits mediated degradation
Tat degradation, Y26A mutation (Tat Y26A): ablated lead hits' ability to mediate Tat degradation
Flag-Tat degradation, cysteine or core regions truncated [1]: no longer degraded Flag-Tat
recombinant Tat degradation (recombinant Tat): degraded Tat as opposed to the DMSO control
IC50 (HIV NL4.3 strain; [2]): 6 ± 1.3 µM
IC50 (HIV NL4.3 strain; Human immunodeficiency virus 1, read-out: Infectivity IC50, HeLa-CD4-LTR-LacZ, analogs of TT-44863 (Table 2)): 1 to 10 µM
Tat degradation, K28R, K29R and K41R (Tat lysine mutants): do not prevent lead hits induced Tat degradation

O=C(CCCCN1CCCC1=O)c1nn(-c2ccccc2)c2c1CCC2 [TT-44881]
Tat degradation, F38A mutation (Tat F38A): only weakly reduced lead hits mediated degradation
Tat degradation, Y26A mutation (Tat Y26A): ablated lead hits' ability to mediate Tat degradation
Flag-Tat degradation, cysteine or core regions truncated [1]: no longer degraded Flag-Tat
recombinant Tat degradation (recombinant Tat): degraded Tat as opposed to the DMSO control
IC50 (HIV NL4.3 strain; [2]): 19.7 ± 4.5 µM
IC50 (HIV NL4.3 strain; Human immunodeficiency virus 1, read-out: Infectivity IC50, HeLa-CD4-LTR-LacZ, analogs of TT-44881 (Table 1)): 1 to 20 µM
Tat degradation, single or combined lysine mutations (Tat lysine mutants): all the mutants were similarly degraded to the control
Tat degradation, additional lysine mutations to K28R, K29R and K41R (Tat lysine mutants): mutation of the K19 or K71 to arginine reduced TT-44881 induced Tat degradation
Tat degradation, K28R, K29R and K41R (Tat lysine mutants): do not prevent lead hits induced Tat degradation
